This note sets out measurements from patent US10745382B2 (BRISTOL-MYERS SQUIBB COMPANY, priority 2015, dated 2020).

Each structure is given as a SMILES string.

T1 sequence (Q9NZQ7 with tags, fused parts or gaps): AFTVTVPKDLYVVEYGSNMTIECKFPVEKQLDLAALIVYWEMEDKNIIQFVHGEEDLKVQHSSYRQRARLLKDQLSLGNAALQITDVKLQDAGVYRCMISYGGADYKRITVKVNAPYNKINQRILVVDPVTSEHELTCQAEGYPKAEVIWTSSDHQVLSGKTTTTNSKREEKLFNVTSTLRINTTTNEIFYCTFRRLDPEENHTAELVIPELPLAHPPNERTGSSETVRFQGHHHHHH

This experiment has as its target T1, PD-1/PD-L1 (Homo sapiens, UniProt Q9NZQ7).
T1 construct: made in house; host or cells: HEK293T
Briefly: PD-1/PD-L1 Homogenous Time-Resolved Fluorescence (HTRF) binding assay. The following applies: PD-L1-His 10 nM, PD-1-Ig 20 nM; value given as range class; read-out: Range or IC50. A digest of the protocol:
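Read-out is time-resolved FRET between europium cryptate-labelled anti-Ig (1 nM final) and APC-labelled anti-His (20 nM final), both dispensed onto the binding mix. Assay buffer: dPBS containing 0.1% bovine serum albumin and 0.05% Tween-20.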
For `Cc1c(COc2cc(OCc3cncc(C(N)=O)c3)c(CN[C@H](CO)C(=O)O)cc2Cl)cccc1-c1cccc(OCCCN2CCC(CO)(C(=O)O)C2)c1C` (stereo partly drawn) [Example 1053, 1-(3-((3′-((5-((5-carbamoylpyridin-3-yl)methoxy)-4-((((R)-1-carboxy-2-hydroxyethyl)amino)methyl)-2-chlorophenoxy)methyl)-2,2′-dimethyl-[1,1′-biphenyl]-3-yl)oxy)propyl)-3-(hydroxymethyl)pyrrolidine-3-carboxylic Acid], the half-maximal inhibitory concentration (IC50) is 0.21 to 10 nM.

Take `Cc1c(COc2cc(OCc3cncc(C#N)c3)c(CN[C@](C)(CO)C(=O)O)cc2Cl)cccc1-c1cccc(OCCCN2CCC(O)(C(=O)O)C2)c1C` (stereo partly drawn) [Example 1054, 1-(3-((3′-((4-((((R)-2-carboxy-1-hydroxypropan-2-yl)amino)methyl)-2-chloro-5-((5-cyanopyridin-3-yl)methoxy)phenoxy)methyl)-2,2′-dimethyl-[1,1′-biphenyl]-3-yl)oxy)propyl)-3-hydroxypyrrolidine-3-carboxylic Acid]: the 50% inhibitory concentration (IC50) was in the range of 0.21 to 10 nM.

For `COC(=O)C1(O)CCN(CCCOc2cccc(-c3cccc(COc4cc(OCc5cncc(S(C)(=O)=O)c5)c(CN[C@](C)(CO)C(=O)O)cc4Cl)c3C)c2C)C1` (stereo partly drawn) [Example 1055, (2R)-2-((5-chloro-4-((3′-(3-(3-hydroxy-3-(methoxycarbonyl)pyrrolidin-1-yl)propoxy)-2,2′-dimethyl-[1,1′-biphenyl]-3-yl)methoxy)-2-((5-(methylsulfonyl)pyridin-3-yl)methoxy)benzyl)amino)-3-hydroxy-2-methylpropanoic Acid], the 50% inhibitory concentration (IC50) was in the range of 0.21 to 10 nM.

Consider `COC(=O)C1(O)CCN(CCCOc2cccc(-c3cccc(COc4cc(OCc5cncc(S(C)(=O)=O)c5)c(CN[C@H](CO)C(=O)O)cc4Cl)c3C)c2C)C1` (stereo partly drawn) [Example 1056, (2R)-2-((5-chloro-4-((3′-(3-(3-hydroxy-3-(methoxycarbonyl)pyrrolidin-1-yl)propoxy)-2,2′-dimethyl-[1,1′-biphenyl]-3-yl)methoxy)-2-((5-(methylsulfonyl)pyridin-3-yl)methoxy)benzyl)amino)-3-hydroxypropanoic Acid], for which the 50% inhibitory concentration (IC50) fell in the range of 0.21 to 10 nM.

Take `Cc1c(COc2cc(OCc3cncc(C(N)=O)c3)c(CN[C@](C)(CO)C(=O)O)cc2Cl)cccc1-c1cccc(OCCCN2CCC(O)(C(=O)O)C2)c1C` (stereo partly drawn) [Example 1057, 1-(3-((3′-((5-((5-carbamoylpyridin-3-yl)methoxy)-4-((((R)-2-carboxy-1-hydroxypropan-2-yl)amino)methyl)-2-chlorophenoxy)methyl)-2,2′-dimethyl-[1,1′-biphenyl]-3-yl)oxy)propyl)-3-hydroxypyrrolidine-3-carboxylic Acid]: the 50% inhibitory concentration (IC50) lay within 0.21 to 10 nM.

In the case of `Cc1c(COc2cc(OCc3cncc(C#N)c3)c(CN[C@](C)(CO)C(=O)O)cc2Cl)cccc1-c1cccc(OCCCN2CCC(O)CC2)c1C` [Example 1059, (R)-2-((5-chloro-2-((5-cyanopyridin-3-yl)methoxy)-4-((3′-(3-(4-hydroxypiperidin-1-yl)propoxy)-2,2′-dimethyl-[1,1′-biphenyl]-3-yl)methoxy)benzyl)amino)-3-hydroxy-2-methylpropanoic Acid], the half-inhibitory concentration (IC50) fell in the range of 0.21 to 10 nM.

Regarding `Cc1c(COc2cc(OCc3cncc(C#N)c3)c(CN[C@H](CO)C(=O)O)cc2Cl)cccc1-c1cccc(OCCCN2CCC(O)CC2)c1C` [Example 1060, (R)-2-((5-chloro-2-((5-cyanopyridin-3-yl)methoxy)-4-((3′-(3-(4-hydroxypiperidin-1-yl)propoxy)-2,2′-dimethyl-[1,1′-biphenyl]-3-yl)methoxy)benzyl)amino)-3-hydroxypropanoic Acid], the concentration for half-maximal inhibition (IC50) fell in the range of 0.21 to 10 nM.

Take `Cc1c(COc2cc(OCc3cncc(C#N)c3)c(CN3CCCC[C@H]3C(=O)O)cc2Cl)cccc1-c1cccc(OCCCN2CCC(O)(C(=O)O)CC2)c1C` [Example 1061, (S)-1-(4-((3′-(3-(4-carboxy-4-hydroxypiperidin-1-yl)propoxy)-2,2′-dimethyl-[1,1′-biphenyl]-3-yl)methoxy)-5-chloro-2-((5-cyanopyridin-3-yl)methoxy)benzyl)piperidine-2-carboxylic Acid]: the 50% inhibitory concentration (IC50) fell in the range of 0.21 to 10 nM.

As to `COC(=O)[C@@H]1C[C@@H](O)CN1CCCOc1cccc(-c2cccc(COc3cc(OCc4cncc(S(C)(=O)=O)c4)c(CN[C@](C)(CO)C(=O)O)cc3Cl)c2C)c1Cl` [Example 1068, (R)-2-((5-chloro-4-((2′-chloro-3′-(3-((2S,4R)-4-hydroxy-2-(methoxycarbonyl)pyrrolidin-1-yl)propoxy)-2-methyl-[1,1′-biphenyl]-3-yl)methoxy)-2-((5-(methylsulfonyl)pyridin-3-yl)methoxy)benzyl)amino)-3-hydroxy-2-methylpropanoic Acid], the IC50 was in the range of 0.21 to 10 nM.

Regarding `COC(=O)[C@@H]1C[C@@H](O)CN1CCCOc1cccc(-c2cccc(COc3cc(OCc4cncc(S(C)(=O)=O)c4)c(CN4CCCC[C@H]4C(=O)O)cc3Cl)c2C)c1Cl` [Example 1069, (S)-1-(5-chloro-4-((2′-chloro-3′-(3-((2S,4R)-4-hydroxy-2-(methoxycarbonyl)pyrrolidin-1-yl)propoxy)-2-methyl-[1,1′-biphenyl]-3-yl)methoxy)-2-((5-(methylsulfonyl)pyridin-3-yl)methoxy)benzyl)piperidine-2-carboxylic Acid], the half-maximal inhibitory concentration (IC50) lay in the range of 0.21 to 10 nM.

Turning to `Cc1cc(OCCCN2CC[C@@H](O)C2)ccc1-c1cccc(COc2cc(OCc3cncc(C#N)c3)c(CN[C@H](CO)C(=O)O)cc2Cl)c1C` [Example 1070, (R)-2-((5-chloro-2-((5-cyanopyridin-3-yl)methoxy)-4-((4′-(3-((R)-3-hydroxypyrrolidin-1-yl)propoxy)-2,2′-dimethyl-[1,1′-biphenyl]-3-yl)methoxy)benzyl)amino)-3-hydroxypropanoic Acid], the 50% inhibitory concentration (IC50) was 0.21 to 10 nM.

For `Cc1cc(OCCCN2CC[C@@H](O)C2)ccc1-c1cccc(COc2cc(OCc3cncc(C#N)c3)c(CN3CCCC[C@H]3C(=O)O)cc2Cl)c1C` [Example 1071, (S)-1-(5-chloro-2-((5-cyanopyridin-3-yl)methoxy)-4-((4′-(3-((R)-3-hydroxypyrrolidin-1-yl)propoxy)-2,2′-dimethyl-[1,1′-biphenyl]-3-yl)methoxy)benzyl)piperidine-2-carboxylic Acid], the IC50 lay within 0.21 to 10 nM.

Take `COC(=O)C1CN(CCCOc2cccc(-c3cccc(COc4cc(OCc5cncc(S(C)(=O)=O)c5)c(CN5CCCC[C@H]5C(=O)O)cc4Cl)c3C)c2C)CC1O` (stereo partly drawn) [Example 1072, (2S)-1-(5-chloro-4-((3′-(3-(3-hydroxy-4-(methoxycarbonyl)pyrrolidin-1-yl)propoxy)-2,2′-dimethyl-[1,1′-biphenyl]-3-yl)methoxy)-2-((5-(methylsulfonyl)pyridin-3-yl)methoxy)benzyl)piperidine-2-carboxylic Acid]: the IC50 fell in the range of 0.21 to 10 nM.

As to `COC(=O)C1CN(CCCOc2cccc(-c3cccc(COc4cc(OCc5cncc(S(C)(=O)=O)c5)c(CN[C@](C)(CO)C(=O)O)cc4Cl)c3C)c2C)CC1O` (stereo partly drawn) [Example 1073, (2R)-2-((5-chloro-4-((3′-(3-(3-hydroxy-4-(methoxycarbonyl)pyrrolidin-1-yl)propoxy)-2,2′-dimethyl-[1,1′-biphenyl]-3-yl)methoxy)-2-((5-(methylsulfonyl)pyridin-3-yl)methoxy)benzyl)amino)-3-hydroxy-2-methylpropanoic Acid], the IC50 was in the range of 0.21 to 10 nM.

Turning to `Cc1c(COc2cc(OCc3cncc(S(C)(=O)=O)c3)c(CN3CCCC[C@H]3C(=O)O)cc2Cl)cccc1-c1cccc(OCCCN2CC(O)C(C(=O)O)C2)c1C` (stereo partly drawn) [Example 1074, (2S)-1-(4-((3′-(3-(3-carboxy-4-hydroxypyrrolidin-1-yl)propoxy)-2,2′-dimethyl-[1,1′-biphenyl]-3-yl)methoxy)-5-chloro-2-((5-(methylsulfonyl)pyridin-3-yl)methoxy)benzyl)piperidine-2-carboxylic Acid], the IC50 lay in the range of 0.21 to 10 nM.

As to `Cc1c(COc2cc(OCc3cncc(S(C)(=O)=O)c3)c(CN[C@](C)(CO)C(=O)O)cc2Cl)cccc1-c1cccc(OCCCN2CC(O)C(C(=O)O)C2)c1C` (stereo partly drawn) [Example 1075, 1-(3-((3′-((4-((((R)-2-carboxy-1-hydroxypropan-2-yl)amino)methyl)-2-chloro-5-((5-(methylsulfonyl)pyridin-3-yl)methoxy)phenoxy)methyl)-2,2′-dimethyl-[1,1′-biphenyl]-3-yl)oxy)propyl)-4-hydroxypyrrolidine-3-carboxylic Acid], the IC50 lay within 0.21 to 10 nM.

With `CNC(=O)C1CCN(CCCOc2cccc(-c3cccc(COc4cc(OCc5cncc(C#N)c5)c(CN[C@](C)(CO)C(=O)O)cc4Cl)c3C)c2Cl)CC1` [Example 1076, (R)-2-((5-chloro-4-((2′-chloro-2-methyl-3′-(3-(4-(methylcarbamoyl)piperidin-1-yl)propoxy)-[1,1′-biphenyl]-3-yl)methoxy)-2-((5-cyanopyridin-3-yl)methoxy)benzyl)amino)-3-hydroxy-2-methylpropanoic Acid], the IC50 lay in the range of 0.21 to 10 nM.

Consider `CNC(=O)C1CCN(CCCOc2cccc(-c3cccc(COc4cc(OCc5cncc(C#N)c5)c(CN5CCCC[C@H]5C(=O)O)cc4Cl)c3C)c2Cl)CC1` [Example 1077, (S)-1-(5-chloro-4-((2′-chloro-2-methyl-3′-(3-(4-(methylcarbamoyl)piperidin-1-yl)propoxy)-[1,1′-biphenyl]-3-yl)methoxy)-2-((5-cyanopyridin-3-yl)methoxy)benzyl)piperidine-2-carboxylic Acid], for which the IC50 is 0.21 to 10 nM.

On to `CC(=O)NC1CCN(CCCOc2cccc(-c3cccc(COc4cc(OCc5cncc(C#N)c5)c(CN5CCCC[C@H]5C(=O)O)cc4Cl)c3C)c2Cl)CC1` [Example 1078, (S)-1-(4-((3′-(3-(4-acetamidopiperidin-1-yl)propoxy)-2′-chloro-2-methyl-[1,1′-biphenyl]-3-yl)methoxy)-5-chloro-2-((5-cyanopyridin-3-yl)methoxy)benzyl)piperidine-2-carboxylic Acid], for which the IC50 was 0.21 to 10 nM.
